Legend:
TNFα production [1] = experiment: PBMC test: TNFα production by LPS-stimulated human peripheral blood mononuclear cells; assay type: cell-based
Method: The ability of compounds of this invention to inhibit TNFα production was assessed by using human peripheral blood mononuclear cells which synthesise and secrete TNFα when stimulated with lipopolysaccharide.
Peripheral blood mononuclear cells (PBMC) were isolated from heparinised (10 units/ml heparin) human blood by density centrifugation (Lymphoprep™; Nycomed). Mononuclear cells were resuspended in culture medium [RPMI 1640 medium (Gibco) supplemented with 50 units/ml penicillin, 50 μg/ml streptomycin, 2 mM glutamine and 1% heat-inactivated human AB serum (Sigma H-1 513)]. Compounds were solubilised in DMSO at a concentration of 50 mM, diluted 1:100 in culture medium and subsequently serial dilutions were made in culture medium containing 1% DMSO. PBMCs (2.4×10^5 cells in 160 μl culture medium) were incubated with 20 μl of varying concentrations of test compound (triplicate cultures) or 20 μl culture medium containing 1% DMSO (control wells) for 30 minutes at 37° C. in a humidified (5%CO2/95% air) incubator (Falcon 3072; 96 well flat-bottom tissue culture plates). 20 μl lipopolysaccharide [LPS E.Coli 0111:B4 (Sigma L4130), final concentration 10 μg/ml] solubilised in culture medium was added to appropriate wells. 20 μl culture medium was added to “medium alone” control wells. Six “LPS alone” and four “medium alone” controls were included on each 96 well plate. Varying concentrations of a known TNFα inhibitor were included in each test, i.e. an inhibitor of the PDE Type IV enzyme (for example see Semmler, J. Wachtel. H. and Endres, S., Int. J. Immunopharmac. (1993), 15(3), 409-413) or an inhibitor of proTNFα convertase (for example, see McGeehan, G. M. et al. Nature (1994) 370, 558-561). Plates were incubated for 7 hours at 37° C. (humidified incubator) after which 100 μl of the supernatant was removed from each well and stored at −70° C. (96 well round-bottom plates; Corning 25850). TNFα levels were determined in each sample using a human TNFα ELISA (see WO92/10190 and Current Protocols in Molecular Biology, vol 2 by Frederick M. Ausbel et al., John Wiley and Sons Inc.).
% inhibition=(LPS alone−medium alone)−(test concentration−medium alone)×100(LPS alone−medium alone)

p38α = molecular target: T1, p38α (Homo sapiens, UniProt Q16539); experiment: In vitro enzyme assay, p38α isoform; assay type: biochemical; conditions: read-out: IC50 against p38α
T1 construct: c-myc (N); 6His (N); made in house; host or cells: E. coli (PET vectors)
Method: The ability of compounds of the invention to inhibit the enzyme p38 kinase was assessed. Activity of test compounds against each of the p38α and […] isoforms of the enzyme was determined.
Human recombinant MKK6 (GenBank Accesion Number G1209672) was isolated from Image clone 45578 (Genomics 1996, 33, 151) and utilised to produce protein in the form of a GST fusion protein in a pGEX vector using analogous procedures to those disclosed by J. Han et al., Journal of Biological Chemistry, 1996, 271, 2886-2891. p38α (GenBank Accession Number G529039) and p38β (GenBank Accession Number G1469305) were isolated by PCR amplification of human lymphoblastoid cDNA (GenBank Accession Number GM1416) and human foetal brain cDNA [synthesised from mRNA (Clontech, catalogue no. 6525-1) using a Gibco superscript cDNA synthesis kit] respectively using oligonucleotides designed for the 5′ and 3′ ends of the human p388α and p38β genes using analogous procedures to those described by J. Han et al., Biochimica et Biolphysica Acta, 1995, 1265, 224-227 and Y. Jiang et al., Journal of Biological Chemistry, 1996, 271, 17920-17926.
Both p38 protein isoforms were expressed in e coli in PET vectors. Human recombinant p38α and p38β isoforms were produced as 5′ c-myc, 6His tagged proteins. Both MKK6 and the p38 proteins were purified using standard protocols: the GST MKK6 was purified using a glutathione sepharose column and the p38 proteins were purified using nickel chelate columns.
The p38 enzymes were activated prior to use by incubation with MKK6 for 3 hours at 30° C. The unactivated coli-expressed MKK6 retained sufficient activity to fully activate both isoforns of p38. The activation incubate comprised p38α (10 μl of 10 mg/ml) or p38β (10 μl of 5 mg/ml) together with MKK6 (10 μl of 1 mg/ml), ‘Kinase buffer’ [100 μl; pH 7.4 buffer comprising Tris (50 mM), EGTA (0.1 mM), sodium orthovanadate (0.1 mM) and β-mercaptoethanol (0.1%)] and MgATP (30 μl of 50 mM Mg(OCOCH3)2 and 0.5 mM ATP). This produced enough activated p38 enzyme for 3 Microtiter plates.
Test compounds were solubilised in DMSO and 10 μl of a 1:10 diluted sample in ‘Kinase Buffer’ was added to a well in a Microtiter plate. For single dose testing, the compounds were tested at 10 μM. ‘Kinase Assay Mix’ [30 μl; comprising Myelin Basic Protein (Gibco BRL cat. no. 1322B-010; 1 ml of a 3.33 mg/ml solution in water), activated p38 enzyme (50 μl) and ‘Kinase Buffer’ (2 ml)] was then added followed by ‘Labelled ATP’ [10 μl; comprising 50 μM ATP, 0.1 μCi ^33P ATP (Amersham International cat. no. BF1000) and 50 mM Mg(OCOCH3)2]. The plates were incubated at room temperature with gentle agitation. Plates containing p38α were incubated for 90 min and plates containing p38β were incubated for 45 min. Incubation was stopped by the addition of 50 μl of 20% trichloroacetic acid (TCA). The precipitated protein was phosphorylated by p38 kinase and test compounds were assessed for their ability to inhibit this phosphorylation. The plates were filtered using a Canberra Packard Unifilter and washed with 2% TCA, dried overnight and counted on a Top Count scintillation counter.
Test compounds were tested initially at a single dose and active compounds were retested to allow IC50 values to be determined.

TNFα production [2] = experiment: Human Whole Blood (HWB) test: TNFα production by LPS-stimulated human whole blood; assay type: cell-based
Method: The ability of the compounds of this invention to inhibit TNFα production was also assessed in a human whole blood assay. Human whole blood secretes TNFα when stimulated with LPS. This property of blood forms the basis of an assay which is used as a secondary test for compounds which profile as active in the PBMC test.
Heparinised (10 units/ml) human blood was obtained from volunteers. 160 μl whole blood were added to 96 well round-bottom plates (Corning 25850). Compounds were solubilised and serially diluted in RPMI 1640 medium (Gibco) supplemented with 50 units/ml penicillin, 50 μg/ml streptomycin and 2 mM glutamine, as detailed above. 20 μl of each test concentration was added to appropriate wells (triplicate cultures). 20 μl of RPMI 1640 medium supplemented with antibiotics and glutamine was added to control wells. Plates were incubated for 30 minutes at 37° C. (humidified incubator), prior to addition of 2011 LPS (final concentration 10 μg/ml). RPMI 1640 medium was added to control wells. Six “LPS alone” and four “medium alone” controls were included on each plate. A known TNFα synthesis/secretion inhibitor was included in each test. Plates were incubated for 6 hours at 37° C. (humidified incubator). […] TNFα levels were measured by ELISA (see WO92/10190 and Current Protocols in Molecular Biology, vol 2 by Frederick M. Ausbel et al., John Wiley and Sons Inc.). […]

T1 sequence (Q16539 whole entry, canonical isoform): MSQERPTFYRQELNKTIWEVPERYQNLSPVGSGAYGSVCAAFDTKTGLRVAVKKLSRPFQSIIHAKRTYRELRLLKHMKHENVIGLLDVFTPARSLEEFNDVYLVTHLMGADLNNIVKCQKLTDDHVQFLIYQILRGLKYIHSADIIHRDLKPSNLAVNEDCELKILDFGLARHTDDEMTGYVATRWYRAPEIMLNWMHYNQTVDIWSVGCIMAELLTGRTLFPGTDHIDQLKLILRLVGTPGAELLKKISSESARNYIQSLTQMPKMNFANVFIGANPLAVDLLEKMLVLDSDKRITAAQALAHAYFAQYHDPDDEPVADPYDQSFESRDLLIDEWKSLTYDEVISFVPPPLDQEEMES

Molecule | IC50 (TNFα production [1]) | IC50 (p38α) | IC50 (TNFα production [1]; Homo sapiens, PBMC) | IC50 (TNFα production [2])
N-[5-(5-isoxazolylcarbonylamino)2-methylphenyl]quinoline-6-carboxamide [Example 14] | ~3000 nM | ~100 nM | – | –
Cc1ccc(NC(=O)c2cccc(N(C)C)c2)cc1NC(=O)c1ccc2ncsc2c1 [Example 8, Compound No. 2, N-[5-(3dimethylaminobenzamido)-2-methylphenyl]benzothiazole-6-carboxamide] | – | ~100 nM | ~5000 nM | –
Cc1ccc(NC(=O)c2ccnc(N3CCOCC3)c2)cc1NC(=O)c1ccc(NCCC2CCCN2C)nc1 (stereo not shown) [Example 22(18), 6-[2-(1-methylpyrrolidin-2-yl)ethylamino]-N-[2-methyl-5(2-morpholinopyrid-4-ylcarbonylamino)phenyl]pyridine-3-carboxamide] | – | ~50 nM | ~300 nM | ~2000 nM
Cc1ccc(NC(=O)c2ccnc(N3CCOCC3)c2)cc1NC(=O)c1ccc(NCCCN(C)C)nc1 [Example 22(14), 6-(3-dimethylaminopropylamino)-N-[2-methyl-5-(2-morpholinopyrid-4-ylcarbonylamino)phenyl]pyridine-3-carboxamide] | – | ~50 nM | – | ~3000 nM
N#Cc1ccc(C(=O)Nc2ccc(Cl)c(NC(=O)c3ccc4ncccc4c3)c2)cc1 [Example 10, N-[2-chloro-5-(4-cyanobenzamido)phenyl]quinoline6-carboxamide] | – | ~50 nM | ~2000 nM | –
Cc1ccc(NC(=O)c2cccc(N(C)C)c2)cc1NC(=O)c1ccc(Cl)nc1 [Example 1, 6-chloro-N-[5-(3-dimethylaminobenzamido)-2-methylphenyl]pyridine-3-carboxamide] | – | ~1000 nM | ~9000 nM | –

Reference: patent US6432949B1, “Amide derivatives useful as inhibitors of the production of cytokines” (AstraZeneca AB, priority 1998, dated 2002)
